In ChEMBL document CHEMBL4665653, “VU6005806/AZN-00016130, an advanced M positive allosteric modulator (PAM) profiled as a potential preclinical development candidate” (Bioorg Med Chem Lett, 2019):
The source made the active and inactive calls. The rule behind the calls is not given here.

Columns and labels:
[1] = system: HIT-T15; test: Displacement of [3H]glyburide from KATP receptor in HIT-T15 Syrian hamster pancreatic B cell membranes assessed as residual binding level for radioligand at 10 uM after 120 mins by radiometric scintillation analysis relative to control; format: tissue-based; details: Mesocricetus auratus
[2] = target: Muscarinic acetylcholine receptor M5 (Homo sapiens, UniProt P08912); test: Positive allosteric modulation of human M5 receptor
[3] = target: Histamine H2 receptor (Homo sapiens) (UniProt P25021); test: Displacement of [125I]aminopotentidine full length recombinant human histamine H2 receptor expressed in CHO-K1 cells assessed as residual binding level for radioligand at 10 uM after 120 mins by scintillation counting analysis relative to control; format: cell-based
Chain of Histamine H2 receptor (Homo sapiens) (P25021 whole entry): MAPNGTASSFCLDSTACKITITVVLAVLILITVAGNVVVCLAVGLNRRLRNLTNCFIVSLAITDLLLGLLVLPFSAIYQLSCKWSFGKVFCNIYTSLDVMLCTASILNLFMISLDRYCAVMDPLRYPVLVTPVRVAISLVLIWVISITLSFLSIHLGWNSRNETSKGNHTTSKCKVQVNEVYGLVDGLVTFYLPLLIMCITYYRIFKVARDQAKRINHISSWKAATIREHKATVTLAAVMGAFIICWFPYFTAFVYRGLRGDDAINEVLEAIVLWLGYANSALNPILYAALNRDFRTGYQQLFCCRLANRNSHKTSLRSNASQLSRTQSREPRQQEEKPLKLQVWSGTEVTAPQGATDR

[4] = species on record: Rattus norvegicus; test: Displacement of [3H]-Kainic acid from Glutamate ionotropic kainate receptor in Wistar rat brain assessed as residual binding level for radioligand at 10 uM incubated for 120 mins by scintillation counting analysis relative to control; format: tissue-based
[5] = target: Epidermal growth factor receptor (Homo sapiens) (UniProt P00533); test: Displacement of [125I]-EGF from human EGF receptor expressed in A-431 cells assessed as residual binding level for radioligand at 10 uM incubated for 60 mins by radiometric scintillation analysis relative to control; format: cell-based
Chain of Epidermal growth factor receptor (Homo sapiens) (P00533 whole entry): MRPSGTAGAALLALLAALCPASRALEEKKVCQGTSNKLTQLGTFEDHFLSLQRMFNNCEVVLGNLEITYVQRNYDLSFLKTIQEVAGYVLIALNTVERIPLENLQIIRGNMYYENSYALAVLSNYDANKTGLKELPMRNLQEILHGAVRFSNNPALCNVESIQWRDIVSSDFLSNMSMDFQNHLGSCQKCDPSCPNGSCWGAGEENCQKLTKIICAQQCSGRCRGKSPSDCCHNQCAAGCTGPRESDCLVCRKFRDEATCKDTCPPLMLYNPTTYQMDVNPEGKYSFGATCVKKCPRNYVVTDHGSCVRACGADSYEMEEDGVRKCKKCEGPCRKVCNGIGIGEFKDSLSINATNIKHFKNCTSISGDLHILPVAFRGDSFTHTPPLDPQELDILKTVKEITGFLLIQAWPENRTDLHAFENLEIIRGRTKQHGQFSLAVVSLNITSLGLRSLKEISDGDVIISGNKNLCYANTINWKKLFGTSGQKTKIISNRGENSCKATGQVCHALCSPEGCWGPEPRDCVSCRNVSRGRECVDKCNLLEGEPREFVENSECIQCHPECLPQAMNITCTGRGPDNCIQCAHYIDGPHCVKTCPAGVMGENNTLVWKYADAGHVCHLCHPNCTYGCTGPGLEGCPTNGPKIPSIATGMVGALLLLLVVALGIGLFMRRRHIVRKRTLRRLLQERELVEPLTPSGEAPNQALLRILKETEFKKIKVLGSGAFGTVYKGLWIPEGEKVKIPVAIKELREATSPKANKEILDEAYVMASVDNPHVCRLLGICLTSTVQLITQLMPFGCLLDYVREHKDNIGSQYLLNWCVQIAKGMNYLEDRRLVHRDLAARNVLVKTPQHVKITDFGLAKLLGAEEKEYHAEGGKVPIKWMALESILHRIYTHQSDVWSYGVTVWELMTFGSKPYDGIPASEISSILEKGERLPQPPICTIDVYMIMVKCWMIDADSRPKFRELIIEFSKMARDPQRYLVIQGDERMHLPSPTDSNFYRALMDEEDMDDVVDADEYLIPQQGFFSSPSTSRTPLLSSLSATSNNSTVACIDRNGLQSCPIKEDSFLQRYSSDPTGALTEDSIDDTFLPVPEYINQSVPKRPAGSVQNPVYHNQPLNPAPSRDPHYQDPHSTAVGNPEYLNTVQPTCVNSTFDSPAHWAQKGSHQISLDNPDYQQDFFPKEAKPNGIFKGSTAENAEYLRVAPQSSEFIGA

[6] = species on record: Rattus norvegicus; test: Displacement of [35S] dATPalphaS from P2Y receptor in Wistar rat brain at 10 uM incubated for 180 mins by radiometric scintillation analysis relative to control; format: tissue-based
[7] = target: Muscarinic acetylcholine receptor M4 (Rattus norvegicus, UniProt P08485); test: Positive allosteric modulation of rat M4 receptor
Chain of Muscarinic acetylcholine receptor M4 (P08485 whole entry): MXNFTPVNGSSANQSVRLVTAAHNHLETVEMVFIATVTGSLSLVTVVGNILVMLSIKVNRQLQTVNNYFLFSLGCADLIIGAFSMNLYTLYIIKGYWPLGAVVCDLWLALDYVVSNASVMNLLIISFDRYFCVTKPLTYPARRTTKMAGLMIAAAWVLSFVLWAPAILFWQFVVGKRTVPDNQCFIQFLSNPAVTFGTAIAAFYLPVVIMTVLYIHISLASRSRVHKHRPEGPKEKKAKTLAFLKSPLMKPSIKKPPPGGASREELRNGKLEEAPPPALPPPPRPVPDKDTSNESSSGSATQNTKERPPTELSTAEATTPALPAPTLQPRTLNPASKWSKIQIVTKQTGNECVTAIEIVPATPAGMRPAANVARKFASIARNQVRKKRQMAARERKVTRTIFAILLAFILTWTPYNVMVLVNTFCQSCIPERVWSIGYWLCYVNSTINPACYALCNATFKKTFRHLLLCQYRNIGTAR

[8] = target: Cannabinoid receptor 1 (Homo sapiens) (UniProt P21554); test: Displacement of [3H]-SR141716A from human recombinant full length Cannabinoid CB1 receptor expressed in Chem-1 cells assessed as residual binding level for radioligand at 10 uM incubated for 60 mins by radiometric scintillation analysis relative to control; format: cell-based
[9] = target: Muscarinic acetylcholine receptor M5 (Rattus norvegicus, UniProt P08911); test: Positive allosteric modulation of rat M5 receptor
[10] = target: Neuropeptide Y receptor type 1 (Homo sapiens) (UniProt P25929); test: Displacement of [125I]peptide YY from human Y1 receptor in SK-N-MC cell membrane assessed as residual binding level for radioligand at 10 uM after 120 mins by scintillation counting analysis relative to control
Chain of Neuropeptide Y receptor type 1 (Homo sapiens) (P25929 whole entry): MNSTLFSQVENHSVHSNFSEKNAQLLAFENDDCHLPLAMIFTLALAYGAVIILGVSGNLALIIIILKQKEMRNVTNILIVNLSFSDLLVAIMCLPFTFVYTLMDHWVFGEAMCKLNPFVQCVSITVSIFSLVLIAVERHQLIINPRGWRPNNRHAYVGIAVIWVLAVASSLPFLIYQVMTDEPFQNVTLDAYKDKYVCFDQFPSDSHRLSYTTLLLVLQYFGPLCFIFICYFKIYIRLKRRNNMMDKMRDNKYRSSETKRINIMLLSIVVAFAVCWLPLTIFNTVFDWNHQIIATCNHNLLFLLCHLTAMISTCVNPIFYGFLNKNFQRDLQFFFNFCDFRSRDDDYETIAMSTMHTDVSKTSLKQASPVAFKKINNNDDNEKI

[11] = target: Glucocorticoid receptor (Homo sapiens) (UniProt P04150); test: Displacement of [3H]Dexamethasone from recombinant full length human glucocorticoid receptor expressed in insect cells assessed as residual binding level for radioligand at 10 uM incubated for 1440 mins by scintillation counting analysis relative to control
Chain of Glucocorticoid receptor (Homo sapiens) (P04150 whole entry): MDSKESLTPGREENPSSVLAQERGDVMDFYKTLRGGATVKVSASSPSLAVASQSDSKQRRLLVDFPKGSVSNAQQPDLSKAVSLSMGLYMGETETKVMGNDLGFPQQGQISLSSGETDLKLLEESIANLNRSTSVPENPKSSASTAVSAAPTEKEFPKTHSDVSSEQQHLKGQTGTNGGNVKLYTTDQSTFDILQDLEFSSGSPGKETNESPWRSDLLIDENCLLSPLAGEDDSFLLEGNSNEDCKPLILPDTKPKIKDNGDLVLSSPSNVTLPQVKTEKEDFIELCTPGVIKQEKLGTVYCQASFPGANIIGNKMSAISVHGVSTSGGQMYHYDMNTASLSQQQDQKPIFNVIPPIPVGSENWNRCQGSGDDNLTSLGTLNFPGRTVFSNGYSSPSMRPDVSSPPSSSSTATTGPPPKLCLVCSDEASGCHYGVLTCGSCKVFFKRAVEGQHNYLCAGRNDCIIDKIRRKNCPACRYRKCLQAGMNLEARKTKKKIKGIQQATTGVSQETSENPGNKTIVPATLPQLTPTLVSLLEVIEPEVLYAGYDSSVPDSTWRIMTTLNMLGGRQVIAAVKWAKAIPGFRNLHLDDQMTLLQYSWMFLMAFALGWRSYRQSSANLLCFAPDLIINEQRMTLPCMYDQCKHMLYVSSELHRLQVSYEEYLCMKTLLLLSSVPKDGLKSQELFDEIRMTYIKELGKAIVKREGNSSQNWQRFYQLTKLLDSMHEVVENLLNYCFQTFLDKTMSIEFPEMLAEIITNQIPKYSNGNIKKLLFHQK

[12] = target: Muscarinic acetylcholine receptor M3 (Homo sapiens, UniProt P20309); test: Displacement of [3H]N-Methylscopolamine from full length human recombinant muscarinic M3 receptor expressed in CHOK1 cells assessed as residual binding level for radioligand at 10 uM measured after 120 mins by radiometric scintillation analysis relative to control; format: cell-based; details: CHO-K1
[13] = Plasma clearance in dog; format: ADME, Canis lupus familiaris; details: read-out: CL(app)
[14] = species on record: Mus musculus; test: Displacement of [3H]-PDBu from phorbol ester receptor in ICR mouse brain assessed as residual binding level for radioligand at 10 uM incubated for 60 mins by scintillation counting analysis relative to control; format: tissue-based
[15] = target: 5-hydroxytryptamine receptor 1A (Homo sapiens) (UniProt P08908); test: Displacement of [3H]-8-OH-DPAT from full length recombinant human 5HT1A receptor expressed in CHO-K1 cells assessed as residual binding level for radioligand at 10 uM incubated for 60 mins by radiometric scintillation analysis relative to control; format: cell-based
[16] = target: B1 bradykinin receptor (Homo sapiens) (UniProt P46663); test: Displacement of [3H]desArg10-KD from human recombinant Bradykinin B1 receptor expressed in CHO-K1 cells assessed as residual binding level for radioligand at 10 uM incubated for 60 mins by radiometric scintillation analysis relative to control; format: cell-based
Chain of B1 bradykinin receptor (Homo sapiens) (P46663 whole entry): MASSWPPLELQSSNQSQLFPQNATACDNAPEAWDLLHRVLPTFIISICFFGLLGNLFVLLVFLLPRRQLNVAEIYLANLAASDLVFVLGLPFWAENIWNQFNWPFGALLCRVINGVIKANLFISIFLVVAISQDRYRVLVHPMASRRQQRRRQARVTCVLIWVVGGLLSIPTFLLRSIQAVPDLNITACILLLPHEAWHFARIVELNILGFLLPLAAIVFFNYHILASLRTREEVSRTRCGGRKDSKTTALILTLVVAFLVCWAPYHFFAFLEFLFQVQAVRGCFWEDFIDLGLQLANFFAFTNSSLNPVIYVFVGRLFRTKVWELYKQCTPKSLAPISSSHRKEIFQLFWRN

[17] = target: Adenosine receptor A1 (Homo sapiens) (UniProt P30542); test: Displacement of [3H]DPCPX from recombinant full length human adenosine A1 receptor expressed in CHO-K1 cells assessed as residual binding level for radioligand at 10 uM incubated for 90 mins radiometric scintillation analysis relative to control; format: cell-based
Chain of Adenosine receptor A1 (Homo sapiens) (P30542 whole entry): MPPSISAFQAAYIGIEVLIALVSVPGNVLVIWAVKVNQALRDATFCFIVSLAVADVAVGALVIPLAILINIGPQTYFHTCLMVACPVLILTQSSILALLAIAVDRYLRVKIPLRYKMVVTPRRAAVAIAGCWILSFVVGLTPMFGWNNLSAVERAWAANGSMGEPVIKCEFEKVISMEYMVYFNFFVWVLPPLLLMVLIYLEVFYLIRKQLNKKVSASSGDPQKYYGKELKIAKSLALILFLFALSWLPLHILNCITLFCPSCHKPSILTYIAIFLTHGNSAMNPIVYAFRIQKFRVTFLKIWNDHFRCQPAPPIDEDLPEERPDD

[18] = target: Delta-type opioid receptor (Homo sapiens) (UniProt P41143); test: Displacement of [3H]-Naltrindole from recombinant full length human delta opioid receptor expressed in HEK293 cells assessed as residual binding level for radioligand at 10 uM incubated for 60 mins by scintillation counting analysis relative to control; format: cell-based
Chain of Delta-type opioid receptor (Homo sapiens) (P41143 whole entry): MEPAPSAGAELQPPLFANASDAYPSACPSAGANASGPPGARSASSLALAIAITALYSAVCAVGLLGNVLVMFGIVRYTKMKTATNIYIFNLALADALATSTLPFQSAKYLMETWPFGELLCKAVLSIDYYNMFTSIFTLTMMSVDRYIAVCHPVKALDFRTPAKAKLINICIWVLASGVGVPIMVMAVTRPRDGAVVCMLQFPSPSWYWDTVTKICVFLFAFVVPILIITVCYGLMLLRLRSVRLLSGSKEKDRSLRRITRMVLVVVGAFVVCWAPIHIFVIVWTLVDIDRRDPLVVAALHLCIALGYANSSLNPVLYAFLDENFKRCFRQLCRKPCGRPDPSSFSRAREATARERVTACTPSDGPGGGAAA

[19] = system: Mus musculus; test: Reversal of amphetamine-induced hyperlocomotion in C57BL/6 mouse at 0.1 to 10 mg/kg, po pretreated for 30 mins after habituation in chamber followed by amphetamine challenge and measured after 1 hr; format: functional, organism-based; details: dose mg/kg 0.1-10, time 30.0 min
[20] = Unbound brain-to-plasma concentration ratio in Sprague-Dawley rat at 0.1 to 0.2 mg/kg, iv measured after 1.5 hrs; format: ADME, organism-based; details: dose 0.1-0.2 mg/kg, read-out: K(p,uu,brain)
[21] = Brain to plasma permeability coefficient, Kp in Sprague-Dawley rat at 0.1 to 0.2 mg/kg, iv measured after 1.5 hrs; format: ADME, organism-based; details: dose 0.1-0.2 mg/kg
[22] = Half life in rat; format: ADME; details: in vivo
[23] = Half life in dog; format: ADME, Canis lupus familiaris; details: in vivo
[24] = species on record: Rattus norvegicus; test: Displacement of [3H]-Batrachotoxinin from Wistar rat sodium channel site 2 assessed as residual binding level for radioligand at 10 uM incubated for 60 mins by scintillation counting analysis relative to control; format: tissue-based; details: Brain
[25] = target: Substance-P receptor (Homo sapiens) (UniProt P25103); test: Displacement of [3H]substance P from recombinant full length human NK1R expressed in CHO cells assessed as residual binding level for radioligand at 10 uM after 90 mins by radiometric scintillation analysis relative to control; format: cell-based
[26] = species on record: Rattus norvegicus; test: Displacement of [3H]Muscimol from GABAA channel muscimol binding site in Wistar rat brain assessed as residual binding level for radioligand at 10 uM incubated for 10 mins by scintillation counting analysis relative to control; format: tissue-based
[27] = Positive allosteric modulation of dog M4 receptor; set-up: species or system Canis lupus familiaris
[28] = target: Prostaglandin E2 receptor EP4 subtype (Homo sapiens) (UniProt P35408); test: Displacement of [3H]-Prostaglandin E2 from full length recombinant human prostanoid receptor EP4 expressed in Chem-1 cells assessed as residual binding level for radioligand at 10 uM incubated for 120 mins by scintillation counting analysis relative to control; format: cell-based
[29] = target: Sodium-dependent noradrenaline transporter (Homo sapiens) (UniProt P23975); test: Displacement of [125I]RTI-55 from full length recombinant human NET expressed in MDCK cells assessed as residual binding level for radioligand at 10 uM after 180 mins by radiometric scintillation analysis relative to control; format: cell-based
Chain of Sodium-dependent noradrenaline transporter (Homo sapiens) (P23975 whole entry): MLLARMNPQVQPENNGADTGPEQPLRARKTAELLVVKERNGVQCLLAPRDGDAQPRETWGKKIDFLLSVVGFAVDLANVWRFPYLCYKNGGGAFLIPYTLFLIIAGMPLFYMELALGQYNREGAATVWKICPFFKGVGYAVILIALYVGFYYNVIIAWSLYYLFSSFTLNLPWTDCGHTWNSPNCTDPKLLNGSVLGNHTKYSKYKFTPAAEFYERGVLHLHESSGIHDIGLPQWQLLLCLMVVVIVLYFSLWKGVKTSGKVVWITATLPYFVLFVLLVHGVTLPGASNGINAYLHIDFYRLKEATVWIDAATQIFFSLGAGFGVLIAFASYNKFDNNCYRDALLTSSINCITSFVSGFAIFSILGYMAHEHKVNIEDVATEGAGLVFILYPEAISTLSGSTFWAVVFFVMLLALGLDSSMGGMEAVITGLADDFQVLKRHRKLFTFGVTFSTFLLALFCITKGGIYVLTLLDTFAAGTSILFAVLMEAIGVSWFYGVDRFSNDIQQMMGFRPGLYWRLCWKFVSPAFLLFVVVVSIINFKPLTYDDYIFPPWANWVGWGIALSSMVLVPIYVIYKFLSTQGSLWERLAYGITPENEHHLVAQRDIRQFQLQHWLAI

[30] = species on record: Macaca fascicularis; test: Positive allosteric modulation of cynomolgus monkey M4 receptor relative to acetylcholine; details: filed as positive allosteric modulator
[31] = target: Estrogen receptor (Homo sapiens) (UniProt P03372); test: Displacement of [3H]estradiol from recombinant full length human recombinant ERalpha receptor expressed in Sf9 insect cells assessed as residual binding level for radioligand at 10 uM measured after 120 mins by radiometric scintillation analysis relative to contro

For `COc1nnc2sc(C(=O)NC3CN(c4ncc(C(F)(F)F)cn4)C3)c(N)c2c1C`, the Activity [1] was > 50%, the EC50 [2] was > 30000 nM and the Activity [3] was > 50%. The Activity [4] was > 50%, the Activity [5] was > 50% and the Activity [6] was > 50%. For the same compound, the EC50 [7] was 28 nM, the Activity [8] was > 50% and the EC50 [9] was > 30000 nM. For the same compound, the Activity [10] was > 50%, the Activity [11] was > 50% and the Activity [12] was > 50%. The clearance [13] was 5.9 mL/min/kg, the Activity [14] was > 50% and the Activity [15] was > 50%. For the same compound, the Activity [16] was > 50%, the Activity [17] was > 50% and the Activity [18] was > 50%. For the same compound, the Activity [19] was “Active”, the Kp uu at 1.5 h [20] was 0.35 and the Kp at 1.5 h [21] was 0.16. The half-life [22] was 2.8 h, the half-life [23] was 1 h and the Activity [24] was > 50%. The Activity [25] was > 50%, the Activity [26] was > 50% and the EC50 [27] was 87 nM. The Activity [28] was > 50%, the Activity [29] was > 50% and the %max [30] was 57%. For the same compound, the Activity [31] was > 50%.
